Experiment [1] has as its system A549 cells. The experiment is described as follows: Cell proliferation PAD assay, A549. The class given is cell-based. The settings on record: Homo sapiens, 48 hours. Summed up:
(§1)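 2,000 cells/well; compound added at 24 h (duplicate, 6.3-fold series, 10 mM stock, 500× dilution into wells); 48 h, 37 °C/5% CO2. Formamide fix, DAPI stain, image-based counts of live (proliferation), apoptotic, dead cells.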

Experiment [2] deals with T1, TRAF6/Uev1A/Ubc13 (Homo sapiens, UniProt Q9Y4K3).
T1 sequence (Q9Y4K3 1-522): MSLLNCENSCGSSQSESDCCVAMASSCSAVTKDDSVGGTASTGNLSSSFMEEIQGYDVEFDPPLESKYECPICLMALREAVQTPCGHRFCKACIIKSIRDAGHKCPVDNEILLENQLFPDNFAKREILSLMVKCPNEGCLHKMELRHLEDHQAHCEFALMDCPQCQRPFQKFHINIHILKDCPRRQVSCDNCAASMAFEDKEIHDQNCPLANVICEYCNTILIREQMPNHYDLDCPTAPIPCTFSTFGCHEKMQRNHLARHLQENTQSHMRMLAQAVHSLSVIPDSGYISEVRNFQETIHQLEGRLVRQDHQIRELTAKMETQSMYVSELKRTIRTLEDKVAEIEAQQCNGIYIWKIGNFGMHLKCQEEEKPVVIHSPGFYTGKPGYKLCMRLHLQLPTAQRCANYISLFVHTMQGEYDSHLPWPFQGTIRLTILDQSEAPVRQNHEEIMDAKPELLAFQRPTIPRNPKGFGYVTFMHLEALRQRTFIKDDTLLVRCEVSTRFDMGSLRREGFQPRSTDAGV
The experiment is described as follows: TRAF6/Uev1A/Ubc13 plate-based ubiquitin ligase assay. The format is biochemical. Summed up:
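Ligase activity was read as luminescence from anti-Flag/HRP detection of Flag-ubiquitin bound to casein-blocked Ni-plates alongside His-ubiquitin after a 1 h room-temperature reaction. Buffer: 62.5 mM Tris pH 7.5, 6.25 mM MgCl2, 1.0 mM DTT, 2 μM ATP; E1, Uev1a/Ubc13 and TRAF6 added last to start. IC50s derived across compound concentrations.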

Experiment [3] has as its system H1299 cells. The experiment can be described thus: Cell proliferation PAD assay, H1299. The class given is cell-based. The settings on record: Homo sapiens, 48 hours. Summed up: as §1
Where [4] appears, read: NCI-H1299, 6pt, read-out: H1299 6pt.
[5] abbreviates: NCI-H1299, 3pt, read-out: H1299 3pt.

Read-outs that look alike come from different tables or passages of the source. A value given as a limit tells only on which side of the number the result lay.

For `O=S(=O)(c1ccc(Sc2ccc(O)cc2)c2nonc12)N1CCC(Oc2ncccn2)CC1` [compound 226, 4-[(7-{[4-(pyrimidin-2-yloxy)piperidin-1-yl]sulfonyl}-2,1,3-benzaxadiazol-4-yl)thio]phenol], the IC50 in experiment [1] (6pt, read-out: A549 6pt) is 1 to 20 µM; in experiment [2], 1 to 20 µM; in experiment [3] (setting [4]) it was 1 to 20 µM.

Turning to `CC1(C)CCN(S(=O)(=O)c2c(Cl)ccc3nonc23)CC1` [compound 245, 5-chloro-4-[(4,4-dimethylpiperidin-1-yl)sulfonyl]-2,1,3-benzoxadiazole], the IC50 was ≥ 20 µM in experiment [1] (6pt, read-out: A549 6pt); 1 to 20 µM in experiment [2]; < 1 µM in experiment [3] (setting [4]).

For `O=S(=O)(Nc1ccc(F)c(F)c1)c1ccc(Cl)c2nonc12` [compound 262, 7-chloro-N-(3,4-difluorophenyl)-2,1,3-benzoxadiazole-4-sulfonamide], the IC50 in experiment [1] (3pt, read-out: A549 3pt) is 1 to 20 µM; in experiment [2], ≥ 20 µM; in experiment [3] (setting [5]) it was 1 to 20 µM.

For the molecule `O=S(=O)(Nc1cccc(F)c1)c1ccc(Cl)c2nonc12` [compound 263, 7-chloro-N-(3-fluorophenyl)-2,1,3-benzoxadiazole-4-sulfonamide], the IC50 was 1 to 20 µM in experiment [1] (3pt, read-out: A549 3pt); ≥ 20 µM in experiment [2]; 1 to 20 µM in experiment [3] (setting [5]).

Turning to `Cc1cc(C)cc(-c2cccc3nonc23)c1` [compound 285, 4-(3,5-Dimethylphenyl)-2,1,3-benzoxadiazole], the IC50 in experiment [1] (3pt, read-out: A549 3pt) is ≥ 20 µM; in experiment [1] (6pt, read-out: A549 6pt) it was ≥ 20 µM; in experiment [2], ≥ 20 µM; in experiment [3] (setting [5]) it was ≥ 20 µM.

Turning to `Cc1cc(C)cc(-c2ccc([N+](=O)[O-])c3nonc23)c1` [compound 286, 4-(3,5-Dimethylphenyl)-7-nitro-2,1,3-benzoxadiazole], the IC50 in experiment [1] (3pt, read-out: A549 3pt) was 1 to 20 µM; in experiment [1] (6pt, read-out: A549 6pt), ≥ 20 µM; in experiment [2], ≥ 20 µM; in experiment [3] (setting [5]), 1 to 20 µM; in experiment [3] (setting [4]), < 1 µM.

`O=[N+]([O-])c1ccc(-c2cccc(C(F)(F)F)c2)c2nonc12` [compound 309, 4-Nitro-7-[3-(trifluoromethyl)phenyl]-2,1,3-benzoxadiazole]: the IC50 fell in the range of 1 to 20 µM in experiment [1] (6pt, read-out: A549 6pt); 1 to 20 µM in experiment [2]; 1 to 20 µM in experiment [3] (setting [4]).

On to `Cc1cccc(-c2ccc([N+](=O)[O-])c3nonc23)c1` [compound 310, 4-(3-Methylphenyl)-7-nitro-2,1,3-benzoxadiazole], for which the IC50 in experiment [1] (6pt, read-out: A549 6pt) is < 1 µM; in experiment [2], ≥ 20 µM; in experiment [3] (setting [4]) it was < 1 µM.

On to `CC(C)(C)c1ccc(-c2ccc([N+](=O)[O-])c3nonc23)cc1` [compound 313, 4-(4-Tert-butylphenyl)-7-nitro-2,1,3-benzoxadiazole], for which the IC50 in experiment [1] (6pt, read-out: A549 6pt) is < 1 µM; in experiment [2], 1 to 20 µM; in experiment [3] (setting [4]), < 1 µM.

As to `COc1cccc(-c2ccc([N+](=O)[O-])c3nonc23)c1F` [compound 314, 4-(2-Fluoro-3-methoxyphenyl)-7-nitro-2,1,3-benzoxadiazole], the IC50 in experiment [1] (6pt, read-out: A549 6pt) lay within 1 to 20 µM; in experiment [2], 1 to 20 µM; in experiment [3] (setting [4]) it was 1 to 20 µM.

Take `O=S(=O)(Nc1ccc2cn[nH]c2c1)c1c(O)ccc2nonc12` [compound 339, 5-hydroxy-N-(1H-indazol-6-yl)2,1,3-benzoxadiazole-4-sulfonamide]: the IC50 is ≥ 20 µM in experiment [1] (6pt, read-out: A549 6pt); ≥ 20 µM in experiment [2]; ≥ 20 µM in experiment [3] (setting [4]).

Turning to `O=S(=O)(c1c(N2CCC(Oc3ccccc3C(F)(F)F)CC2)ccc2nonc12)N1CCC(Oc2ccccc2C(F)(F)F)CC1` [compound 340, 5-[4-(2-{trifluoromethyl}phenoxy)piperidin-1-yl]-4-{[4-(2-{trifluoromethyl}phenoxy)piperidin-1-yl]sulfonyl}-2,1,3-benzoxadiazole], the IC50 in experiment [1] (6pt, read-out: A549 6pt) was 1 to 20 µM; in experiment [2], ≥ 20 µM; in experiment [3] (setting [4]), 1 to 20 µM.

Regarding `COc1cc(NS(=O)(=O)c2ccc(Cl)c3nonc23)c(OC)cc1Cl` [compound 341, 7-chloro-N-(4-chloro-2,5-dimethoxyphenyl)-2,1,3-benzoxadiazole-4-sulfonamide], the IC50 was 1 to 20 µM in experiment [1] (6pt, read-out: A549 6pt); ≥ 20 µM in experiment [2]; 1 to 20 µM in experiment [3] (setting [4]).

On to `COc1cc(Nc2ccc(S(=O)(=O)Nc3cc(OC)c(Cl)cc3OC)c3nonc23)c(OC)cc1Cl` [compound 342, N-(4-chloro-2,5-dimethoxyphenyl)-7-([4-chloro-2,5-dimethoxyphenyl]amino)-2,1,3-benzoxadiazole-4-sulfonamide], for which the IC50 in experiment [1] (6pt, read-out: A549 6pt) was 1 to 20 µM; in experiment [2], 1 to 20 µM; in experiment [3] (setting [4]), < 1 µM.

On to `COc1cc(NS(=O)(=O)c2c(Cl)ccc3nonc23)c(OC)cc1Cl` [compound 343, 5-chloro-N-(4-chloro-2,5-dimethoxyphenyl)-2,1,3-benzoxadiazole-4-sulfonamide], for which the IC50 is 1 to 20 µM in experiment [1] (6pt, read-out: A549 6pt); ≥ 20 µM in experiment [2]; 1 to 20 µM in experiment [3] (setting [4]).

Regarding `COc1cc(Nc2ccc3nonc3c2S(=O)(=O)Nc2cc(OC)c(Cl)cc2OC)c(OC)cc1Cl` [compound 344, N-(4-chloro-2,5-dimethoxyphenyl)-5-([4-chloro-2,5-dimethoxyphenyl]amino)-2,1,3-benzoxadiazole-4-sulfonamide], the IC50 was ≥ 20 µM in experiment [1] (6pt, read-out: A549 6pt); ≥ 20 µM in experiment [2]; ≥ 20 µM in experiment [3] (setting [4]).

The record behind these values is patent US20050282818A1, “Ubiquitin ligase inhibitors” (Rigel Pharmaceuticals, Inc., priority 2004, published 2005).
